The target of this assay is T1, CDK2/Cyclin E (Homo sapiens, UniProt P24941).
T1 construct: The open reading frames of CDK2 and Cyclin E were isolated by reverse transcriptase-PCR; made in house; host or cells: Sf21 (Spodoptera frugiperda) insect cells, baculovirus co-infection, vector pVL1393
Put plainly: in vitro kinase assay (Scintillation Proximity Assay), incorporation of [γ-33-P]-ATP into GST-Rb. The class given is biochemical. The settings on record: CDK2/Cyclin E partially-purified enzyme, GST-Rb substrate, 0.2 μM ATP, 60 minutes at room temperature; read-out: CDK2 inhibitory activity IC50. As for the experimental part:
The compounds were tested in an in vitro kinase assay in 96 well format using Scintillation Proximity Assay (SPA—obtained from Amersham) for measuring incorporation of [γ-33-P]-Adenosine Triphosphate into a test substrate (GST-Retinoblastoma protein; GST-Rb). In each well was placed the compound to be tested (diluted in DMSO and water to correct concentrations) and in control wells either roscovitine as an inhibitor control or DMSO as a positive control. […]
The plates were sealed with Topseal-S plate sealers, left for two hours then spun at 2500 rpm, 1124×g., for 5 minutes. The plates were read on a Topcount for 30 seconds per well. […]
E.coli paste was resuspended in 10 ml/g of NETN buffer (50 mM Tris pH 7.5, 120 mM NaCl, 1 mM EDTA, 0.5% v/v NP-40, 1 mM PMSF, 1 ug/ml leupeptin, 1 ug/ml aprotinin and 1 ug/ml pepstatin) and sonicated for 2×45 seconds per 100 ml homogenate. […] The final product was analysed by Sodium Dodeca Sulfate (SDS) PAGE (Polyacrylamide gel) using 8-16% Tris-Glycine gels (Novex, San Diego, USA).
The open reading frames of CDK2 and Cyclin E were isolated by reverse transcriptase-PCR using HeLa cell and activated T cell mRNA as a template and cloned into the insect expression vector pVL1393 (obtained from Invitrogen 1995 catalogue number: V1392-20). […]
For orientation: SPA uses beads or plates that emit light when radiolabelled molecules are held near them.

Our source for the IC50 values is US6906065B2, “4-Amino-5-cyano-2-anilino-pyrimidine derivatives and their use as inhibitors of cell-cycle kinases” (AstraZeneca AB, priority 2000, dated 2005).

For `N#Cc1cnc(Nc2ccc(S(=O)(=O)NC3CCC3)cc2)nc1N` [Example 21, 4-Amino-5-cyano-2-{4-[N-(cyclobutyl)sulphamoyl]anilino}pyrimidine], the half-inhibitory concentration (IC50) (usually the concentration at which inhibition is half-maximal) turned out to be 33 nM.
Under `CCCNS(=O)(=O)c1ccc(Nc2ncc(C#N)c(N)n2)cc1` [Example 23, 4-Amino-5-cyano-2-[4-(N-propylsulphamoyl)anilino]pyrimidine] stands 17 nM.
